Where two headings read alike, the source gives them in different places.
How the values were obtained:
MCF-10A cells = test: Cytotoxicity against MCF-10A cells, MTT assay (five doses); type: cell-based; conditions: Homo sapiens, MCF-10A normal cells, five dose concentrations, n = 3, read-out: MCF-10A IC50 ± SD
VEGFR-2 = target: T1, VEGFR-2 (Homo sapiens, UniProt P35968); test: VEGFR-2 kinase inhibition, luminescent VEGFR2 (KDR) kinase assay kit (BPS Bioscience # 40325); type: biochemical; conditions: for VEGFR-2 enzyme inhibition LogIC50 (Fig. 3): unit not given
T1 construct: purchased BPS Bioscience 40325
T1 sequence (P35968 20-1356): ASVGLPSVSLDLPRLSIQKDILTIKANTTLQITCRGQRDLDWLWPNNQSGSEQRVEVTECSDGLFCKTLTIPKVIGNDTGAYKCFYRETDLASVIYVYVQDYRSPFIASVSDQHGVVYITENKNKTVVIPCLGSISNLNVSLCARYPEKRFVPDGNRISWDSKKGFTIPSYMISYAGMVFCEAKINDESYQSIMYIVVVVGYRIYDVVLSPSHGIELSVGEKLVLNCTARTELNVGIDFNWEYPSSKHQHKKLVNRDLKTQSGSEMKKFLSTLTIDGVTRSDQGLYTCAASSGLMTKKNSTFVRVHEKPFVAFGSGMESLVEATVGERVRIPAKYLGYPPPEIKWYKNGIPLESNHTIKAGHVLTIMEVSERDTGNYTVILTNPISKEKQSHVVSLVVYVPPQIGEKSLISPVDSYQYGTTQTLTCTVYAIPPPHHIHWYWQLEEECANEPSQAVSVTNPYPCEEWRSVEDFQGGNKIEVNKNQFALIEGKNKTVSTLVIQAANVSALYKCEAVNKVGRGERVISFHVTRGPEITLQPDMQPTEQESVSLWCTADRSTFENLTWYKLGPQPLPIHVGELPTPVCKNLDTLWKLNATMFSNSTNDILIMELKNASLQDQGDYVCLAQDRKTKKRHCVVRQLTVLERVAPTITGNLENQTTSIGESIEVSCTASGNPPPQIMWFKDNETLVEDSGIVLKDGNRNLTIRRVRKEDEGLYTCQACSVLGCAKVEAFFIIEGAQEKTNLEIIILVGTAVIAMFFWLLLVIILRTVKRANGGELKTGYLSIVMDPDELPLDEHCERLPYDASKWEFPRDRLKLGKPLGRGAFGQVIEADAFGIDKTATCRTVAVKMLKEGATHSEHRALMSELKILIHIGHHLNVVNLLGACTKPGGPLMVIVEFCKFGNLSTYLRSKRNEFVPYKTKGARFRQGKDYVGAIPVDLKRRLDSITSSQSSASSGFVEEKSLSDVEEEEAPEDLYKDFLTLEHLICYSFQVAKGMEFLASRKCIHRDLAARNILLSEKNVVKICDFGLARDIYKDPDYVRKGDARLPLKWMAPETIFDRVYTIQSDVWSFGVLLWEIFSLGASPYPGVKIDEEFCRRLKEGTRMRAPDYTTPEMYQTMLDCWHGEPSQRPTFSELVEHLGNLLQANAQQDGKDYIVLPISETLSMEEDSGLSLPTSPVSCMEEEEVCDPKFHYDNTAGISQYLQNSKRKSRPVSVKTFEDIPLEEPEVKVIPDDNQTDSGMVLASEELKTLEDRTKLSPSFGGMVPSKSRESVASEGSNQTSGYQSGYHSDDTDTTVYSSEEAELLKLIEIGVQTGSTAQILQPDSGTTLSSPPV
Experimental: Functionally, this pathway operates in autocrine and intracrine modes to promote cell proliferation, survival, and resistance to apoptosis through downstream effectors such as PI3K/AKT and p38 MAPK.
(§1) SIT, FLU and TNZ were tested using the five dose sigmoidal curves to determine the IC50 values. […] At the end of these experiment, anti-tumor potentiality was recorded using tumor weight (mg), tumor volume (mm^3), and the tumor inhibition ratio (TIR%). Hematological parameters of Hemoglobin (Hb, g/dL), RBC’s count (10^6/μL), and WBC’s count (10^3/μL) were investigated, along with histopathological and immunohistochemical staining of the VEGR2 protein.
Compounds Itraconazole. […] [12].

MCF-7 cells = test: Cytotoxicity against MCF-7 cells, MTT assay (single dose and five doses); conditions: for Average OD / OD1 / OD2 / OD3: MCF-7, single dose 100 μg/mL, MTT optical density; for Average OD: average of triplicates; for OD1: replicate 1; for OD2: replicate 2; for OD3: replicate 3
[1] = system: Solid Ehrlich Carcinoma (SEC); test: In vivo anti-tumor activity in solid Ehrlich carcinoma (SEC)-bearing mice (tumor mass, volume, TIR%, hematology, histopathology)
Experimental: All experimental protocols were approved by the Research Ethics Committee and Institutional Animal Care and Use Committee, Faculty of Science, Suez Canal University with the ethical code (SCU-Sci-REC439/2025), and all methods were carried out according to the European Union guidelines and in accordance with ARRIVE guidelines. All animals were anesthetized using a combination of Xylazine 10 mg/kg- Ketamine 100 mg/kg of body weight, respectively, prior sacrifice via cervical decapitation.
In all graphs, treatments were administrated intraperitoneal (IP) with 6 mg/Kg B.Wt. for two weeks, day after day.
as §1, with “values. They were tested for the VEGFR2 inhibition using VEGFR2 Kinase Inhibition Assay Kit Catalog # 40325 BPS Bioscience, San Diego, CA.” for “values.”
Adult female Swiss albino mice purchased from Faculty of Pharmacy, Suez Canal University, Ismailia, Egypt, with an average body weight of (18-23) g was used. Mice were housed under constant conditions of 12 h light/dark cycle in a […], with free access to standard laboratory mice food and water. All procedures related to care and maintenance of the animals were performed according to the international guiding principles for animal research and approved by the Faculty of Pharmacy, Suez Canal University bioethics and animal ethics committee.
Solid Ehrlich carcinoma (SEC) was got from the National Cancer Institute (Cairo University, Egypt). The tumor cell line proliferated in mice through serial intraperitoneal (I.P.) transplantation of a volume of 0.2 mL physiological saline containing 1×10^6 viable cells for 24 h. SEC cells were collected 7 days after I.P. implantation. The harvested cells were diluted with saline to obtain a concentration of 5×10^6 viable SEC cells/mL. A volume of 0.2 mL saline contains 1×10^6 SEC cells that were I.P. implanted into each normal mouse. SEC cells (1×10^6 tumor cells/mouse) were implanted subcutaneously into the right thigh of the hind limb.
The experimental animals were randomly divided into four groups. Group 1 served as the normal saline control. Group 2 served as the SEC control (1×10^6 cells/mouse). Group 3 served as the ITR-treated group (6 mg/kg B.Wt., I.P.). […] Body weight and survival were recorded daily until the 24th day in both treated and control groups. At the end of the experiment, anesthetized animals were then sacrificed for evaluation of the antitumor activity and histopathological examination.
It includes tumor volume, weight, and tumor inhibition ratio (TIR%). Time interval measurements of tumor volume using a digital Vernier caliper (Tricle Brand, Shanghai, China). Measure tumor length and width using a clipper and then calculate tumor volume using formulations V = (L x W x W)/2, where V is tumor volume, W is tumor width, L is tumor length. While TIR% was calculated according to the following equation Tumor volume Control-Tumor volume (treated)Tumor volume (control)x 100.
Specimens of liver-sacrificed mice were fixed in 10% saline formalin. The fixed liver specimens were Dehydrated in ascending series of ethyl alcohol and embedded in paraffin.

VEGF = test: Immunohistochemical staining of VEGF in SEC tumor sections; type: in vivo, mice; conditions: IHC of SEC tumor
Excerpt: VEGF has been considered a biomarker for VEGFR-2 bioactivity, as it binds to and activates this kinase receptor, playing a crucial role in angiogenesis. High VEGF levels are often associated with increased VEGFR-2 expression and activity, making VEGF a marker for VEGFR-2's function and tumor growth. […] The staining intensity is strong (+ 3), with dark brown cytoplasmic staining in most tumor cells. The immunoreactive score (IRS), calculated by multiplying the staining intensity score and the percentage of positive cells, is 9–12, indicating a high level of VEGF expression. This intense VEGF expression correlates with the presence of numerous irregular and dilated blood vessels in the tumor microenvironment.
The paraffin-infiltrated tissue was sliced into thin sections (4-6 μm) using a microtome and floated in a water bath. The sections were then mounted onto charged slides and left to dry overnight. The use of charged slides ensures the sections adhere properly to the slide. To carry out antibody staining, the paraffin wax was removed from the sample, and the tissue was rehydrated. The paraffin was eliminated by placing the tissue sections in three containers of xylene for 5 minutes each. Rehydration began by immersing the sections in two containers of 100% ethanol for 10 minutes each, followed by two containers of 95% ethanol for 10 minutes each. Finally, to complete the rehydration, the sections were washed twice in deionized water for 5 minutes each.
For antigen retrieval, the slides are heated in 10 mM Tris/1 mM EDTA, pH 9.0, kept at a sub-boiling temperature for 18 minutes, and then allowed to cool at room temperature for 30 minutes. For chromogenic staining detection, the sections are rinsed in deionized water three times for 5 minutes each, and then the endogenous peroxidase activity in the tissue sections is quenched to prevent high background staining by incubating the sections in 3% hydrogen peroxide for 10 minutes. Afterward, the sections are washed twice in deionized water for 5 minutes each, followed by a single wash in wash buffer for 5 minutes. A hydrophobic pen is used to carefully draw a large circle around the sample, ensuring it doesn’t touch the sample, creating a hydrophobic boundary to achieve optimal antibody staining quality. To prevent non-specific antibodies from binding to the tissue, each section is blocked with 100–400 µl of blocking solution for 1 hour at room temperature in a humidified chamber. The blocking solution was discarded, and 100–400 µl of diluted primary antibody was applied. […]
The slides were incubated overnight at 4°C in a humidified chamber. […] Then, 100–400 µl of Signal Stain DAB was applied to each section and monitored closely for 1–10 minutes until an acceptable staining intensity was achieved. […]

[2] = enzyme inhibition, dose-response, non-linear regression, read-out: VEGFR-2 inhibition IC50
[3] = Homo sapiens, MCF7, read-out: Average viability%
[4] = Homo sapiens, MCF7, read-out: MCF-7 IC50 ± SD, MCF-7, five dose concentrations, MTT, n = 3
[5] = Homo sapiens, MCF7, read-out: Viability (%) 1
[6] = Homo sapiens, MCF7, read-out: Viability (%) 2
[7] = Homo sapiens, MCF7, read-out: Viability (%) 3

Row | Compound | IC50 (MCF-10A cells) | VEGFR-2 enzyme inhibition LogIC50 (Fig. 3) (VEGFR-2; dose-response curve fit) | viability at 100 µg/mL (MCF-7 cells; [3]) | IC50 (MCF-7 cells; [4]) | viability at 100 µg/mL (MCF-7 cells; [5]) | viability at 100 µg/mL (MCF-7 cells; [6]) | viability at 100 µg/mL (MCF-7 cells; [7]) | Average OD (MCF-7 cells) | OD1 (MCF-7 cells) | OD2 (MCF-7 cells) | OD3 (MCF-7 cells) | other results
1 | OC(Cn1cncn1)(Cn1cncn1)c1ccc(F)cc1F [Fluconazole, fluconazole] | 32.3 ± 1.77 µM | 2.535 | 64.3% | 260 µM | 62.7% | 67.3% | 62.9% | 2.07 | 2.02 | 2.17 | 2.03 | IC50 (VEGFR-2; [2]): 343000 nM; IC50 (MCF-7 cells; read-out: MCF-7 IC50 ± SD, MCF-7, five dose concentrations, MTT, n = 3, listed as FLU): 261 ± 6.8 µM
2 | COc1cccc2c1C(=O)c1c(O)c3c(c(O)c1C2=O)C[C@@](O)(C(=O)CO)C[C@@H]3O[C@H]1C[C@H](N)[C@H](O)[C@H](C)O1 [DOX, doxorubicin] | 38.9 ± 1.1 µM |  | 46.2% | 3.91 ± 0.6 µM | 41.9% | 42.9% | 53.6% | 1.49 | 1.35 | 1.38 | 1.73 | 
3 | CCCCc1nc(Cl)c(CO)n1Cc1ccc(-c2ccccc2-c2nn[nH]n2)cc1 [Losartan, losartan] |  |  | 71% |  | 71.4% | 69.1% | 72.3% | 2.29 | 2.30 | 2.23 | 2.33 | 
4 | Clc1ccc(COC(Cn2ccnc2)c2ccc(Cl)cc2Cl)c(Cl)c1 (stereo not shown) [Miconazole, miconazole] |  |  | 76% |  | 77% | 76% | 75% | 2.45 | 2.48 | 2.45 | 2.42 | 
5 | O=C1CN(/N=C/c2ccc(-c3ccc([N+](=O)[O-])cc3)o2)C(O)=N1 [Dantrolene, dantrolene] |  |  | 70% |  | 72% | 65.7% | 72.5% | 2.26 | 2.32 | 2.12 | 2.34 | 
6 | CCS(=O)(=O)CCn1c([N+](=O)[O-])cnc1C [Tinidazole, tinidazole] | 51.5 ± 1.8 µM | 1.913 | 67.5% | 301 µM | 68.2% | 66.2% | 68% | 2.16 | 2.20 | 2.14 | 2.19 | IC50 (VEGFR-2; dose-response curve fit, unit inferred, read-out: VEGFR-2 enzyme inhibition IC50 (Fig. 3)): 81900 nM; IC50 (VEGFR-2; enzyme inhibition, unit printed as nM in text, read-out: VEGFR-2 inhibition IC50): 81900 nM; IC50 (MCF-7 cells; read-out: MCF-7 IC50 ± SD, MCF-7, five dose concentrations, MTT, n = 3, listed as TNZ): 301 ± 7.6 µM
7 | N[C@@H](CC(=O)N1CCn2c(nnc2C(F)(F)F)C1)Cc1cc(F)c(F)cc1F [Sitagliptin, sitagliptin] | 37.6 ± 1.9 µM | 2.016 | 64.6% | 183 µM | 65.7% | 64.4% | 63.8% | 2.08 | 2.12 | 2.08 | 2.06 | IC50 (VEGFR-2; [2]): 104000 nM; IC50 (MCF-7 cells; read-out: MCF-7 IC50 ± SD, MCF-7, five dose concentrations, MTT, n = 3, listed as SIT): 183 ± 3.1 µM
8 | CNC(=O)c1cc(Oc2ccc(NC(=O)Nc3ccc(Cl)c(C(F)(F)F)c3)cc2)ccn1 [Sorafenib] |  |  |  |  |  |  |  |  |  |  |  | solid tumor mass ([1]; 6 mg/Kg B.Wt. IP, two weeks, day after day, SEC control 469 mg): 229 mg; tumor volume ([1]; 6 mg/Kg B.Wt. IP, two weeks, day after day, SEC control 420 mm^3): 214 mm^3; WBC's count ([1]; 6 mg/Kg IP, normal 5, SEC control 9.2): 6.6 10^3/µL; RBC's count ([1]; 6 mg/Kg IP, normal 6.9, SEC control 3.1): 4.9 10^6/µL; Hemoglobin level ([1]; 6 mg/Kg IP, normal 11.6, SEC control 4.6): 6.9 g/dL; Tumor cell density (histopathology of SEC mass) ([1]; isolated tumor mass, SEC control 2.2 cm^2): 0.5 cm^2; immunoreactive score (IRS) (VEGF; scale 0-12, SEC control 9–12): 1–2; percentage of VEGF-positive tumor cells (VEGF; SEC control 80–90%): 10–30%

— publication PMC12699035, “Exploring market-approved azoles as potential breast cancer therapeutics targeting the VEGFR-2 biotarget” (Scientific Reports, 2025)
